Laboratory results taken from US10301320B2, “Compositions and methods of modulating 15-PGDH activity” (CASE WESTERN RESERVE UNIVERSITY, priority 2012, dated 2019).
“Also recorded” adds a separate entry of the source. Read-outs that look alike come from different tables or passages of the source. Blank lines part the entries; values can stand above or below the compound they belong to.

How the values were obtained:
[1] = molecular target: T1, recombinant 15-PGDH protein (Homo sapiens (Human), UniProt P15428); experiment: Inhibition of enzymatic activity of recombinant 15-PGDH in vitro; type: biochemical;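 note: activity of recombinant human 15-PGDH assayed in vitro using PGE2 as the substrate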
T1 sequence (P15428 whole entry): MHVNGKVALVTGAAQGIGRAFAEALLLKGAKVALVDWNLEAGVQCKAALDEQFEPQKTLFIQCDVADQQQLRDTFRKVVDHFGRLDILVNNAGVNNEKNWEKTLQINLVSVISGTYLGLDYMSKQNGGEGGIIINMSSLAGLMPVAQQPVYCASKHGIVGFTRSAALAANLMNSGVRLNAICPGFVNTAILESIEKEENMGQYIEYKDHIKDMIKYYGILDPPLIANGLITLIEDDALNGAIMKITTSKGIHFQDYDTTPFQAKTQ

A549 cells [2] = experiment: PGE2 levels in medium of IL1-beta stimulated A549 cells; type: cell-based; conditions: for Effect on PGE2 levels in medium, in words: IL1-beta stimulated A549 cells; for PGE2 levels achieved: IL-1β 16 h, compound 8 h, highest level of titration
[3] = tested on: 15-PGDH-luciferase fusion reporter in V9m, LS174T and V503 cell lines; experiment: 15-PGDH-luciferase fusion gene reporter induction in three colon cancer cell lines (stated jointly); type: cell-based
[4] = tested on: LS174T reporter cell line expressing a 15-PGDH luciferase fusion construct; experiment: 15-PGDH-luciferase fusion gene reporter induction, LS174T cell line; type: cell-based; conditions: Homo sapiens
Text: (§1) These cell lines are Vaco-9m (V9m), LS174T, Vaco503 (V503). […] Value of 1.0 on the Y-axis is the basal level of reporter activity in cells treated with drug free DMSO vehicle.
(§2) This Example provides data on a group of structural analogues of SW033291. Data provided includes level of induction of a 15-PGDH-luciferase fusion gene reporter, recorded as % increased luciferase activity over basal level, in three colon cancer cell lines, V9m, V503, and LS174T, engineered to contain the reporter, and treated with either 2.5 uM or 7.5 uM compound (i.e., Values are recorded on a scale where 100 indicates of doubling of luciferase activity over baseline level).
(§3) FIGS. 27(A-C) show graphs that show the level of compound's activity in inducing the 15-PGDH-luciferase fusion reporter in three different test cell line backgrounds, V9m, LS174T, and V503. Each compound was tested at two concentrations, 2.5 uM, and 7.5 uM. Y-axis is luciferase activity.
(§4) Data provided include level of induction of a 15-PGDH-luciferase fusion gene reporter, recorded as % induction of luciferase activity over basal level, in three colon cancer cell lines, V9m, V503, and LS174T, engineered to contain the reporter, and treated with either 2.5 uM or 7.5 uM compound. […] Additionally, for selected compounds is recorded the decrease in PGE2 levels in the media of compound treated A549 cells that have been stimulated with IL-1 beta. Additionally recorded for selected compounds is the effect on A549 cell viability as measured by a CellTiter-Glo assay, and the effect of compounds on A549 cell colony formation.

[5] = tested on: Vaco503 reporter cell line expressing a 15-PGDH luciferase fusion construct; experiment: 15-PGDH-luciferase fusion gene reporter induction, Vaco503 (V503) cell line; type: cell-based; conditions: read-out: V503-3H9-7 reporter activity, % ([…]), Table 18, […]
Text: as §1, §2, §3, §4

[6] = tested on: V9m reporter cell line expressing a 15-PGDH luciferase fusion construct; experiment: 15-PGDH-luciferase fusion gene reporter induction, V9m cell line; type: cell-based; conditions: […]; for V9M reporter activity ([…]): % increased luciferase activity over basal level
Text: as §1, §2, §3, §4

[7] = molecular target: T1, recombinant 15-PGDH protein; experiment: Melting temperature shift of recombinant 15-PGDH (SYPRO Orange); type: binding; conditions: 15-PGDH 10 uM, compound 20 uM, NAD(+) 100 uM; control 49
A549 cells [8] = experiment: Cellular toxicity on A549 cells (CellTiter-Glo, cell numbers); type: cell-based
Protocol: Time to inhibition refers to the time needed to inhibit the generation of NADH by 15-PGDH from the moment with drug is added into the reaction mix. Delta™ refers to the shift in melting temperature of recombinant 15-PGDH in the presence of drug (with cofactor NADH also present). Concentration of Full Cell Line Reporter Induction refers to the concentration of drug that needs to be added to reporter cell line to achieve maximal induction of the 15-PGDH-luciferase gene fusion reporter cassette, as measured by luciferase assays. Hepatocyte stability refers to the half-life of compound in the presence of hepatocytes in culture. Toxicity refers to the concentration of compound needed to decrease cell numbers in a cell culture assay.
FIGS. 38(A-C) show assays of cellular toxicity on A549 cells at 24 hours of 15-PGDH inhibitors as assayed by CellTiter-Glo measurement.
FIGS. 84(A-C) show at left (84A) activity in lowering PGE2 levels in media of A549 cells that are stimulated to produce PGE2 by treatment with IL1-beta.

[9] = tested on: wild-type mouse bone marrow; experiment: Hematopoietic colonies from bone marrow treated ex vivo; type: cell-based; conditions: 1 uM, ex vivo on ice for 2 hours; compared with SW033291
Text: Treated marrow is again then plated into methylcellulose for counting of hematopoietic colonies.

[10] = read-out: Enzyme inhibition % ([…]), recombinant 15-PGDH, […] compound, read-out: Enzyme inhibition % (2.5 μM)
[11] = read-out: Enzyme inhibition % ([…]), recombinant 15-PGDH, […] compound, read-out: Enzyme inhibition % (7.5 μM)

SMILES: COc1ccc(N(CC(=O)Nc2cccnc2)S(=O)(=O)c2ccccc2)cc1C [592469-85-7]
inhibition at […] ([1]; read-out: Enzyme inhibition % ([…]), Table 18, […] compound, read-out: Enzyme inhibition % (2.5 μM)): 6.23%
inhibition at […] ([1]; read-out: Enzyme inhibition % ([…]), Table 18, […] compound, read-out: Enzyme inhibition % (7.5 μM)): 17.2%
activation at […] ([4]; read-out: Ls174T-SC1 reporter activity, % ([…]), Table 18, […], read-out: Ls174T-SC1 reporter activity, % (2.5μM)): 3.77%
activation at […] ([4]; read-out: Ls174T-SC1 reporter activity, % ([…]), Table 18, […], read-out: Ls174T-SC1 reporter activity, % (7.5 μM)): 14%
activation at […] ([5]; read-out: V503-3H9-7 reporter activity, % (2.5 μM)): 10.2%
activation at […] ([5]; read-out: V503-3H9-7 reporter activity, % (7.5 μM)): 5.3%
percent reporter induction over basal at […] ([6]; read-out: V9M-SC3 Reporter activity % ([…]), Table 18, read-out: V9M-SC3 Reporter activity % (7.5 μM)): 18.5%
activation at […] ([6]; read-out: V9M-SC3 Reporter activity ([…]) (%), Table 18, read-out: V9M-SC3 Reporter activity (2.5 μM) (%)): -9.74%

SMILES: CCCC[S+]([O-])c1sc2nc(-c3nccs3)ccc2c1N (stereo not drawn) [SW206992, 2-(butylsulfinyl)-6-(thiazol-2-yl)thieno[2,3-b]pyridin-3-amine]
Time to inhibition (10 nM) ([1]; time needed to inhibit generation of NADH after drug is added): ~2 min
PGE2 levels achieved (A549 cells [2]): 2100 pg/mL
Melting temperature [7]: 59 degrees
V9M reporter activity ([…]) [6]: 121.75%
V9M reporter activity ([…]) ([6]; 100 = doubling): 86.44%
Concentration for Full Cell Line Reporter Induction ([3]; maximal induction of reporter, printed in uM): >1 µM
Toxicity, CellTiter-Glo (A549 cells [8]; 24 hours, up to 10 uM in FIG. 38): No effect on CellTitre-Glo levels
Toxicity (A549 cells [8]; concentration needed to decrease cell numbers in a cell culture assay): >7.5 µM

SMILES: CCCC[S+]([O-])c1sc2nc(-c3cccs3)ccc2c1N (stereo not drawn) [SW206980, 2-(butylsulfinyl)-6-(thiophen-2-yl)thieno[2,3-b]pyridin-3-amine]
PGE2 levels achieved (A549 cells [2]): 2500 pg/mL
V9M reporter activity ([…]) [6]: 92.71%
V9M reporter activity ([…]) ([6]; 100 = doubling): 99.37%
Induction of 15-PGDH-luciferase reporter, in words [3]: highly active compound in reporter induction; also recorded: activity comparable to SW033291

SMILES: COc1ccc(S(=O)(=O)N(CC(=O)Nc2cccnc2)c2cc(OC)ccc2OC)cc1 [SW202940]
inhibition at […] [1, 10]: 24.3%
inhibition at […] [1, 11]: 63.3%
Induction of 15-PGDH-luciferase reporter, in words [3]: active in inducing 15-PGDH-luciferase reporter activity

SMILES: CCCCC[C@H](O)/C=C/[C@H]1[C@H](O)CC(=O)[C@@H]1C/C=C\CCCC(=O)O [PGE2, prostaglandin E2]
Increase in bone marrow derived colonies, in words [9]: lesser increase

SMILES: COc1ccc(OC)c(N(CC(=O)Nc2csnc2C)S(=O)(=O)c2ccccc2)c1 [SW203703]
inhibition at […] [1, 10]: 26.5%
inhibition at […] [1, 11]: 58.9%
Effect on PGE2 levels in medium, in words (A549 cells [2]): show activity in lowering PGE2
Induction of 15-PGDH-luciferase reporter, in words [3]: active in inducing the 15-PGDH-luciferase reporter

Second part, led by results:

inhibition at […] [1, 10]: 1.7%
inhibition at […] [1, 11]: 24.9%
SMILES: COc1ccc(OC)c(N(CC(=O)Nc2cccnc2)S(=O)(=O)c2ccc(F)cc2)c1 [SW203736]
Inhibition of recombinant 15-PGDH, in words [1]: lesser inhibitory activity at high concentration
Effect on PGE2 levels in medium, in words (A549 cells [2]): show activity in lowering PGE2
Induction of 15-PGDH-luciferase reporter, in words [3]: active in inducing 15-PGDH-luciferase reporter activity; also recorded: active in inducing the 15-PGDH-luciferase reporter

inhibition at […] [1, 10]: 8.09%
inhibition at […] [1, 11]: 14.4%
SMILES: COc1ccc(S(=O)(=O)N(CC(=O)N2CCCCCC2)c2cc(OC)ccc2OC)cc1 [SW207998]
Inhibition of recombinant 15-PGDH, in words [1]: much less inhibition of enzymatic activity of 15-PGDH; also recorded: lesser inhibitory activity at high concentration
Reduction in levels of PGE2 in the medium, ranking (A549 cells [2]; 100 nM drug, 15-PGDH activators): greatest reduction in levels of PGE2
Induction of 15-PGDH-luciferase reporter, in words [3]: activity equal to, or in some assays greater than, SW054384; also recorded: active in inducing the 15-PGDH-luciferase reporter

inhibition at […] [1, 10]: -0.86%
inhibition at […] [1, 11]: 3.34%
SMILES: COc1ccc(S(=O)(=O)N(CC(=O)N2CCCCC2)c2cc(OC)ccc2OC)cc1 [SW207999]
Inhibition of recombinant 15-PGDH, in words [1]: lesser inhibitory activity at high concentration
Induction of 15-PGDH-luciferase reporter, in words [3]: active in inducing the 15-PGDH-luciferase reporter
